Reference: patent US20040053962A1, “Methods for inhibiting proliferation and inducing apoptosis in cancer cells” (priority 2003, published 2004)

What was measured:
[1] = test system: MiaPaCa-2 pancreatic cancer cell line; assay: [3H]-thymidine incorporation (DNA synthesis), MiaPaCa-2; assay type: cell-based
Protocol: (§1) Cell culture. The following pancreatic cancer cell lines were used: MiaPaCa-2 and PANC-1 (poorly-differentiated); Capan-1 and Capan-2 (well-differentiated); and HPAF and AsPC-1 (pleomorphic). These were purchased from American Type Culture Collection (Rockville, Md.). PANC-1 and MiaPaCa-2 were grown in DMEM media; HPAF and AsPC-1 were grown in MEM media; and Capan-1 and Capan-2 were grown in-McCoy's media. Media were supplemented with 10% FBS, and the cells were grown as monolayers in a humidified atmosphere of […] and 5% CO2 at 37° C. The cells were regularly seeded into 75 cm^2 flask with media changed every other day. For experiments, cells were grown to 80% confluence, digested with trypsin-EDTA, and plated either in 12 or 24-well plates at a concentration of 50,000/ml, as appropriate.
(§2) DNA synthesis by [^3H]-Thymidine incorporation. Cells were plated in 12 or 24-well plates. After reaching 70% confluence, they were incubated in serum-free media for 24 hours, which was then replaced with fresh serum-free media with or without the appropriate concentration of leukotriene B4 receptor antagonist LY293111 (62.5-1000 nM), LTB4 (100-400 nM), or both. After the appropriate period of culture, cellular DNA synthesis was assayed by adding 0.5 μCi/well of [^3H]-methyl-thymidine and incubating for another 2 hours. Then, the cells were washed twice with PBS, fixed with 10% trichloroacetic acid (“TCA”) for 30 minutes, and solubilized by adding 0.4 M NaOH to each well. Radioactivity, indicating incorporation of ^3H-thymidine into DNA, was measured by adding a scintillation cocktail and counting on a scintillation counter (LKB RackBeta, Wallac, Turku, Finland)

[2] = test system: HPAF pancreatic cancer cell line; assay: [3H]-thymidine incorporation (DNA synthesis), HPAF; assay type: cell-based; details: for proliferation (thymidine incorporation), % control / proliferation, % control (time course): mean±SEM
Protocol: as §1, §2

[3] = test system: Capan-1 pancreatic cancer cell line; assay: [3H]-thymidine incorporation (DNA synthesis), Capan-1; assay type: cell-based; details: mean±SEM; for proliferation (thymidine incorporation), % control: 24 hours
Protocol: as §1, §2

[4] = test system: PANC-1 pancreatic cancer cell line; assay: [3H]-thymidine incorporation (DNA synthesis), PANC-1; assay type: cell-based; details: mean±SEM; for proliferation (thymidine incorporation), % control: 24 hours
Protocol: as §1, §2

[5] = test system: MiaPaCa-2 pancreatic cancer cells; assay: Cell proliferation assay (cell number, Coulter counter); assay type: cell-based; details: 500 nM for 24, 48, and 72 hours (FIG. 2)
Protocol: as §1
Cell proliferation assay. Pancreatic cancer cells were seeded into 24-well microplates and incubated at 37° C. […] At the end of each time period, the cells were trypsinized to produce a single cell suspension, and the cell number in each well was determined using a Zi-Coulter Counter (Luton, Bedfordsire, United Kingdom).

[6] = test system: MiaPaCa-2 cells; assay: DNA fragmentation assay (agarose gel), MiaPaCa-2; assay type: cell-based; details: MiaPaCa-2, 250, 500 and 1000 nM for 48 hours; no ladder in control cells
Protocol: DNA fragmentation assay. For analysis of DNA fragmentation by agarose gel electrophoresis, treated pancreatic cancer cells were detached from 75 cm^2 flask with trypsin-EDTA, washed twice with PBS, resuspended in 1 ml lysis buffer (25 mM EDTA, 10 mM Tris, 0.5% Triton X-100, and 1% SDS), and freeze-thawed at −80° C. overnight. Then, an equal volume of PEG/NaCl stock solution was added to the lysates to give a final concentration of 0.25% PEG and 1 M NaCl, and the tubes were centrifuged at 13,200 g at 4° C. for 30 minutes. The supernatants containing fragmented small molecular weight DNA were then incubated with RNAse A (0.3 mg/ml) at 37° C. for one hour and then with […] proteinase K (10 mg/ml) for three hours. Samples were then extracted with phenol-chloroform and precipitated with 70% ethanol overnight. The pellets containing DNA were then resuspended in […] of TE buffer, subjected to electrophoresis on a 1.8% agarose gel containing ethidium bromide ([…]), visualized by UV illumination, and analyzed using a Molecular Analyst Gel Documentation system (Bio-rad Laboratories, Hercules, Calif.).

[7] = test system: AsPc-1 human pancreatic tumor cell line xenograft; assay: AsPc-1 xenograft tumor growth in athymic mice; assay type: in vivo; details: 0.01% LY293111 in the drinking water, started four days after s.c. injection of 3 million AsPc-1 cells
Protocol: Athymic mice received a subcutaneous injection of 3 million cancer cells in 50 μl of serum-free media. The highly malignant and aggressive pancreatic tumor cell line, AsPc-1, was used in this experiment. The tumors were allowed to establish and grow for four days prior to treatment with 0.01% LY293111 in the drinking water.

[8] = test system: pancreatic cancer cell lines; assay: Proliferation of pancreatic cancer cell lines (summary statement); assay type: cell-based
Protocol: as §1
DNA synthesis by [^3H]-Thymidine incorporation. Cells were plated in 12 or 24-well plates. After reaching 70% confluence, they were incubated in serum-free media for 24 hours, which was then replaced with fresh serum-free media with or without the appropriate concentration of leukotriene B4 receptor antagonist LY293111 (62.5-1000 nM), LTB4 (100-400 nM), or both. […] Radioactivity, indicating incorporation of ^3H-thymidine into DNA, was measured by adding a scintillation cocktail and counting on a scintillation counter (LKB RackBeta, Wallac, Turku, Finland)

[9] = test system: pancreatic, colonic, and breast cancer cell lines; assay: Proliferation by thymidine incorporation and cell number, all lines studied; assay type: cell-based
Protocol: as §2
Cell proliferation assay. Pancreatic cancer cells were seeded into 24-well microplates and incubated at 37° C. After 24 hours, cells were cultured in serum-free media with or without 250 nM LY293111 for 24, 48, and 72 hours. At the end of each time period, the cells were trypsinized to produce a single cell suspension, and the cell number in each well was determined using a Zi-Coulter Counter (Luton, Bedfordsire, United Kingdom). […]

**Q.** For `CCCc1c(OCCCOc2cc(O)c(-c3ccc(F)cc3)cc2CC)cccc1Oc1ccccc1C(=O)O` [LY293111, 2-(2-propyl-3-(3-(2-ethyl-4-(4-fluorophenyl)-5-hydroxyphenoxy)propoxy)-phenoxy)benzoic acid], which decrease of proliferation ([1]; MiaPaCa-2 (FIG. 6A), LY293111 250 nM, 24 hours) is on record?
**A.** 50%

**Q.** And the “proliferation with combination of LTB4 and LY293111” value ([1]; MiaPaCa-2, 250 nM LY293111 + 100 nM LTB4, 24 hours)?
**A.** restored to almost the control level

**Q.** What about the “effect on thymidine incorporation” value ([1]; MiaPaCa-2, concentration-dependent (FIG. 1A, P<0.0001) and time-dependent (FIG. 1B, P<0.0001)) of the same compound?
**A.** inhibition of thymidine incorporation

**Q.** And the decrease of proliferation ([2]; HPAF (FIG. 6B), LY293111 250 nM, 24 hours)?
**A.** 50%

**Q.** What about the “proliferation with combination of LTB4 and LY293111” value ([2]; HPAF, 250 nM LY293111 + 100 nM LTB4, 24 hours) of the same compound?
**A.** restored to almost the control level

**Q.** What about the “proliferation (thymidine incorporation), % control” value ([2]; HPAF, LY293111 62.5 nM, 24 hours) of the same compound?
**A.** 103.6 ± 21.8 % control

**Q.** And the “proliferation (thymidine incorporation), % control” value ([2]; HPAF, LY293111 125 nM, 24 hours)?
**A.** 97.6 ± 24.5 % control

**Q.** What about the “proliferation (thymidine incorporation), % control” value ([2]; HPAF, LY293111 250 nM, 24 hours) of the same compound?
**A.** 49.3 ± 9.0 % control

**Q.** And the “proliferation, % control (time course)” value ([2]; HPAF, LY293111 500 nM, 6 h)?
**A.** 67.5 ± 11.6 % control

**Q.** And the “proliferation, % control (time course)” value ([2]; HPAF, LY293111 500 nM, 12 h)?
**A.** 35.7 ± 8.9 % control

**Q.** And the “proliferation, % control (time course)” value ([2]; HPAF, LY293111 500 nM, 24 h)?
**A.** 12.4 ± 3.3 % control

**Q.** What about the “proliferation (thymidine incorporation), % control” value ([2]; HPAF, LY293111 500 nM, 24 hours) of the same compound?
**A.** 10.3 ± 3.0 % control

**Q.** And the “proliferation (thymidine incorporation), % control” value ([2]; HPAF, LY293111 1000 nM, 24 hours)?
**A.** 2.3 ± 1.4 % control

**Q.** What about the “proliferation (thymidine incorporation), % control” value ([3]; Capan-1, LY293111 62.5 nM) of the same compound?
**A.** 99.1 ± 4.8 % control

**Q.** And the “proliferation (thymidine incorporation), % control” value ([3]; Capan-1, LY293111 125 nM)?
**A.** 56.9 ± 4.9 % control

**Q.** What about the “proliferation (thymidine incorporation), % control” value ([3]; Capan-1, LY293111 250 nM) of the same compound?
**A.** 16.4 ± 2.0 % control

**Q.** And the “proliferation, % control (time course)” value ([3]; Capan-1, LY293111 500 nM, 6 h)?
**A.** 70.5 ± 8.7 % control

**Q.** What about the “proliferation, % control (time course)” value ([3]; Capan-1, LY293111 500 nM, 12 h) of the same compound?
**A.** 44.5 ± 10.2 % control

**Q.** And the “proliferation, % control (time course)” value ([3]; Capan-1, LY293111 500 nM, 24 h)?
**A.** 15.7 ± 3.4 % control

**Q.** What about the “proliferation (thymidine incorporation), % control” value ([3]; Capan-1, LY293111 500 nM) of the same compound?
**A.** 15.7 ± 3.4 % control

**Q.** And the “proliferation (thymidine incorporation), % control” value ([3]; Capan-1, LY293111 1000 nM)?
**A.** 0.2 ± 0.3 % control

**Q.** And the “proliferation (thymidine incorporation), % control” value ([4]; PANC-1, LY293111 62.5 nM)?
**A.** 89.4 ± 4.4 % control

**Q.** What about the “proliferation (thymidine incorporation), % control” value ([4]; PANC-1, LY293111 125 nM) of the same compound?
**A.** 65.2 ± 3.8 % control

**Q.** And the “proliferation, % control (time course)” value ([4]; PANC-1, LY293111 500 nM, 6 h)?
**A.** 60.2 ± 6.5 % control

**Q.** What about the “proliferation, % control (time course)” value ([4]; PANC-1, LY293111 500 nM, 12 h) of the same compound?
**A.** 48.9 ± 5.3 % control

**Q.** And the “proliferation, % control (time course)” value ([4]; PANC-1, LY293111 500 nM, 24 h)?
**A.** 13.6 ± 1.0 % control

**Q.** And the “proliferation (thymidine incorporation), % control” value ([4]; PANC-1, LY293111 500 nM)?
**A.** 12.4 ± 3.1 % control

**Q.** And the “proliferation (thymidine incorporation), % control” value ([4]; PANC-1, LY293111 1000 nM)?
**A.** 5.6 ± 1.0 % control

**Q.** And the “effect on cell number” value [5]?
**A.** inhibition

**Q.** And the “DNA fragmentation (apoptosis)” value [6]?
**A.** distinctive DNA ladder

**Q.** And the “tumor size vs control group” value [7]?
**A.** smaller tumors

**Q.** And the inhibition at 0.25 µM ([8]; LY293111 250 nM)?
**A.** ≥ 50%

**Q.** What about the inhibition at 1 µM ([8]; LY293111 1000 nM) of the same compound?
**A.** > 95%

**Q.** And the “effect on proliferation (thymidine incorporation and cell number)” value [9]?
**A.** profound concentration-dependent and time-dependent inhibition of proliferation
